Reference: patent publication US20240228504A1, “SUBSTITUTED TRICYCLIC AMIDES, ANALOGUES THEREOF, AND METHODS USING SAME” (Arbutus Biopharma Corporation, priority 2020, published 2024)

Tested on: HBV rcDNA in HepDE19 cells
Test: HepDE19 assay with bDNA quantitation of HBV rcDNA
Assay type: cell-based, hepatitis B virus
Details: Hepatitis B virus, HepDE19, HepDE19 assay, inhibition of rcDNA formation, bDNA quantitation; read-out: DE-19bDNA EC50

Structure (SMILES) | EC50 [nM]
CN(C(=O)c1ccc2c(cnn2C(F)F)c1)[C@@H]1COCc2[nH]c(=O)c3cc(F)c(F)cc3c21 [Compound 437, (S)-N-(8,9-Difluoro-6-oxo-1,4,5,6-tetrahydro-2H-pyrano[3,4-c]isoquinolin-1-yl)-1-(difluoromethyl)-N-methyl-1H-indazole-5-carboxamide] | 5
CN(C(=O)c1ccc2cn[nH]c2c1)[C@@H]1COCc2[nH]c(=O)c3cc(F)c(F)cc3c21 [Compound 450, (S)-N-(8,9-Difluoro-6-oxo-1,4,5,6-tetrahydro-2H-pyrano[3,4-c]isoquinolin-1-yl)-N-methyl-1H-indazole-6-carboxamide] | 110
CN(C(=O)c1ccc2nc[nH]c2c1)[C@@H]1COCc2[nH]c(=O)c3cc(F)c(F)cc3c21 [Compound 451, (S)-N-(8,9-difluoro-6-oxo-1,4,5,6-tetrahydro-2H-pyrano[3,4-c]isoquinolin-1-yl)-N-methyl-1H-benzo[d]imidazole-6-carboxamide] | 12300
CN(C(=O)c1cc2sc(C#N)cc2[nH]1)[C@@H]1COCc2[nH]c(=O)c3cc(F)c(F)cc3c21 [Compound 468] | 5
CN(C(=O)c1cc2sc(Cl)cc2[nH]1)[C@@H]1COC(=O)c2[nH]c(=O)c3cc(F)c(F)cc3c21 [Compound 477, (S)-2-Chloro-N-(8,9-difluoro-4,6-dioxo-1,4,5,6-tetrahydro-2H-pyrano[3,4-c]isoquinolin-1-yl)-N-methyl-4H-thieno[3,2-b]pyrrole-5-carboxamide] | 20
CN(C(=O)c1cc2cc(F)c(C(F)F)cc2[nH]1)[C@@H]1COC(=O)c2[nH]c(=O)c3cc(F)c(F)cc3c21 [Compound 478, (S)-N-(8,9-Difluoro-4,6-dioxo-1,4,5,6-tetrahydro-2H-pyrano[3,4-c]isoquinolin-1-yl)-6-(difluoromethyl)-5-fluoro-N-methyl-1H-indole-2-carboxamide] | 10
CN(C(=O)c1cc2cc(F)c(C(F)F)cc2[nH]1)[C@@H]1CCCc2[nH]c(=O)c3cc(F)ccc3c21 [Compound 479, (R)-6-(difluoromethyl)-5-fluoro-N-(8-fluoro-6-oxo-1,2,3,4,5,6-hexahydrophenanthridin-1-yl)-N-methyl-1H-indole-2-carboxamide] | 40
CN(C(=O)c1cc2cc(F)ccc2[nH]1)[C@@H]1CCCc2[nH]c(=O)c3cc(F)c(F)cc3c21 [Compound 480, (R)-N-(8,9-difluoro-6-oxo-1,2,3,4,5,6-hexahydrophenanthridin-1-yl)-5-fluoro-N-methyl-1H-indole-2-carboxamide] | 10
CN(C(=O)c1cc2cc(F)c(F)cc2[nH]1)[C@@H]1CCCc2[nH]c(=O)c3cc(F)c(F)cc3c21 [Compound 481, (R)-N-(8,9-difluoro-6-oxo-1,2,3,4,5,6-hexahydrophenanthridin-1-yl)-5,6-difluoro-N-methyl-1H-indole-2-carboxamide] | 10
CN(C(=O)c1cc2cc(F)c(C(F)F)cc2[nH]1)[C@@H]1CCCc2[nH]c(=O)c3cc(F)c(F)cc3c21 [Compound 482, (R)-N-(8,9-difluoro-6-oxo-1,2,3,4,5,6-hexahydrophenanthridin-1-yl)-6-(difluoromethyl)-5-fluoro-N-methyl-1H-indole-2-carboxamide] | 10
CN(C(=O)c1cc2c(C(F)F)cc(F)cc2[nH]1)[C@@H]1CCCc2[nH]c(=O)c3cc(F)c(F)cc3c21 [Compound 483, (R)-N-(8,9-difluoro-6-oxo-1,2,3,4,5,6-hexahydrophenanthridin-1-yl)-4-(difluoromethyl)-6-fluoro-N-methyl-1H-indole-2-carboxamide] | 10
Cc1cccc2[nH]c(C(=O)N(C)[C@@H]3CCCc4[nH]c(=O)c5cc(F)c(F)cc5c43)cc12 [Compound 484, (R)-N-(8,9-difluoro-6-oxo-1,2,3,4,5,6-hexahydrophenanthridin-1-yl)-N,4-dimethyl-1H-indole-2-carboxamide] | 10
Cc1cc(F)cc2[nH]c(C(=O)N(C)[C@@H]3CCCc4[nH]c(=O)c5cc(F)c(F)cc5c43)cc12 [Compound 485, (R)-N-(8,9-difluoro-6-oxo-1,2,3,4,5,6-hexahydrophenanthridin-1-yl)-6-fluoro-N,4-dimethyl-1H-indole-2-carboxamide] | 10
CN(Cc1ccc(Br)c(F)c1)[C@@H]1COCc2[nH]c(=O)c3cc(F)c(F)cc3c21 [Compound 486, (S)-1-((4-bromo-3-fluorobenzyl)(methyl)amino)-8,9-difluoro-1,5-dihydro-2H-pyrano[3,4-c]isoquinolin-6(4H)-one] | 8280
CN(C(=O)c1cc2sc(Cl)cc2[nH]1)[C@@H]1COC(O)c2[nH]c(=O)c3cc(F)c(F)cc3c21 (stereo partly drawn) [Compound 487, 2-Chloro-N-((1S)-8,9-difluoro-4-hydroxy-6-oxo-1,4,5,6-tetrahydro-2H-pyrano[3,4-c]isoquinolin-1-yl)-N-methyl-4H-thieno[3,2-b]pyrrole-5-carboxamide] | 20
CN(C(=O)c1cc2cc(F)c(C(F)F)cc2[nH]1)[C@@H]1COC(O)c2[nH]c(=O)c3cc(F)c(F)cc3c21 (stereo partly drawn) [Compound 488, N-((1S)-8,9-Difluoro-4-hydroxy-6-oxo-1,4,5,6-tetrahydro-2H-pyrano[3,4-c]isoquinolin-1-yl)-6-(difluoromethyl)-5-fluoro-N-methyl-1H-indole-2-carboxamide] | 10
CN(C(=O)c1cc2cc(F)ccc2[nH]1)[C@@H]1CCCc2[nH]c(=O)c3cc(F)ccc3c21 [Compound 489, (R)-5-Fluoro-N-(8-fluoro-6-oxo-1,2,3,4,5,6-hexahydrophenanthridin-1-yl)-N-methyl-11H-indole-2-carboxamide] | 10
CN(C(=O)c1cc2cc(F)c(F)cc2[nH]1)[C@@H]1CCCc2[nH]c(=O)c3cc(F)ccc3c21 [Compound 490, (R)-5,6-difluoro-N-(8-fluoro-6-oxo-1,2,3,4,5,6-hexahydrophenanthridin-1-yl)-N-methyl-1H-indole-2-carboxamide] | 20
Cc1cccc2[nH]c(C(=O)N(C)[C@@H]3CCCc4[nH]c(=O)c5cc(F)ccc5c43)cc12 [Compound 491, (R)-N-(8-fluoro-6-oxo-1,2,3,4,5,6-hexahydrophenanthridin-1-y1)-N,4-dimethyl-1H-indole-2-carboxamide] | 20
Cc1cc(F)cc2[nH]c(C(=O)N(C)[C@@H]3CCCc4[nH]c(=O)c5cc(F)ccc5c43)cc12 [Compound 492, (R)-6-fluoro-N-(8-fluoro-6-oxo-1,2,3,4,5,6-hexahydrophenanthridin-1-y1)-N,4-dimethyl-1H-indole-2-carboxamide] | 30
CN(C(=O)c1cc2c(C(F)F)cc(F)cc2[nH]1)[C@@H]1CCCc2[nH]c(=O)c3cc(F)ccc3c21 [Compound 493, (R)-4-(difluoromethyl)-6-fluoro-N-(8-fluoro-6-oxo-1,2,3,4,5,6-hexahydrophenanthridin-1-y1)-N-methyl-1H-indole-2-carboxamide] | 10
CN(Cc1cc2cc(F)c(F)cc2[nH]1)[C@@H]1COCc2[nH]c(=O)c3cc(F)c(F)cc3c21 [Compound 494, (S)-1-(((5,6-difluoro-1H-indol-2-yl)methyl)(methyl)amino)-8,9-difluoro-1,5-dihydro-2H-pyrano[3,4-c]isoquinolin-6(4H)-one] | 1500
